Test system: Pseudomonas aeruginosa strain PAO1
Assay: Diffusion of antibiotic molecules through the membrane of PAO1 nanoculture capsules
Format: cell-based
Method: FIGS. 9A-9C provide representative brightfield images of the presently disclosed nanoculture capsules. Pseudomonas aeruginosa PAO1 strain was used as the bacterial inoculum for the inner phase of the capsules. Antibiotics, including tobramycin and tetracycline, were introduced 24 hours after encapsulation. (9A) Untreated PAO1 nanoculture after 24 hours. (9B) PAO1 nanoculture treated with 50 ug/ml tobramycin. (9C) PAO1 nanoculture treated with 50 ug/ml tetracycline.
The presently disclosed polymer was used to investigate the diffusion of antibiotic molecules through the membrane. Pseudomonas aeruginosa strain PAO1 was used as the bacterial inoculum for the inner phase of the nanoculture capsules. Antibiotics, including tobramycin and tetracycline, to which the PAO1 were sensitive, were introduced 24 hours after encapsulation. A 24-hour incubation period allowed for the confluent growth of PAO1. […] Microcapsules used in FIGS. 9A-9C were generated by using (H:V)=(0.6:1) with 3 ppm Pt catalyst and 0% DMAA. The generated microcapsules were heat treated for 5 minutes at 70° C. immediately after encapsulation. Following heat treatment, capsules were incubated at 37° C. for 24 hours.

CN(C)[C@@H]1C(O)=C(C(N)=O)C(=O)[C@@]2(O)C(O)=C3C(=O)c4c(O)cccc4[C@@](C)(O)[C@H]3C[C@@H]12 [tetracycline]
Ability to permeate and diffuse through the membrane (inferred from PAO1 killing at 50 ug/ml, membrane (H:V)=(0.6:1), 3 ppm Pt, 0% DMAA): able to diffuse through the membrane

NC[C@H]1O[C@H](O[C@H]2[C@H](O)[C@@H](O[C@H]3O[C@H](CO)[C@@H](O)[C@H](N)[C@H]3O)[C@H](N)C[C@@H]2N)[C@H](N)C[C@@H]1O [tobramycin]
PAO1 cells in nanoculture capsules after antibiotic treatment (50 ug/ml antibiotic introduced 24 hours after encapsulation, capsules (H:V)=(0.6:1), 3 ppm Pt catalyst, 0% DMAA, heat treated 5 minutes at 70° C.): persisted | Ability to permeate and diffuse through the membrane (not told): unable to permeate and diffuse through the membrane

Source: patent US11534408B2, “Microcapsules and methods of using the same” (priority 2018, dated 2022)
